# Assay results reported in patent US11813236B2, “Substances for treatment of fatty liver-related conditions” (SCANDIBIO THERAPEUTICS AB, priority 2016, dated 2023).
# What was measured:
# [1] = tested on: subjects with high HS; assay: Human study: supplementation of serine; format: in vivo
# Procedure: 86 subjects with varying degrees of […] were recruited for studying the response of liver to the HS. Also, liver tissue samples from 12 morbidly obese subjects that underwent bariatric surgery were collected. The mRNA expression of the identified target genes was measured in liver of obese and healthy subjects. In order to show the effect of the serine on the liver, another six subjects were recruited and the subjects' characteristics before and after serine supplementation are presented in Table 3. Subjects included in the studies met all the criteria for NAFLD including exclusion of other chronic liver diseases such as viral hepatitis, risky alcohol consumption, metabolic disorders (e.g., hemochromatosis).
# Magnetic resonance experiments were performed using three 1.5 T clinical imagers (1× Sonata and 2× Avanto, Siemens, Erlangen, Germany). Liver fat content was determined using proton magnetic resonance spectroscopy and subcutaneous abdominal and visceral fat was measured by magnetic resonance imaging (Adiels et al, 2006; Lundbom et al, 2011).
# (§1) The effect of short-term dietary supplementation with serine on HS and fasting levels of Plasma markers of liver functions was assessed in six subjects with high. HS. Each patient received one oral dose of ˜20 g of L-serine (200 mg/kg) per day for 14 days.
# as §1, with “To identify the unique contribution of serine supplementation in decreasing HS, the” for “The”, “plasma” for “Plasma”, “high” for “high.”
# [2] = tested on: humans; conditions: cited from earlier work
# [3] = 200 mg/kg/day oral 14 days, six subjects
structure (smiles),measurement,setting,value
"N[C@@H](CO)C(=O)O [serine, L-serine]",Plasma level of ALP after supplementation (change in words),[1]; [3],significantly decreased
same,Plasma level of ALT after supplementation (change in words),[1]; [3],significantly decreased
same,Plasma level of AST after supplementation (change in words),[1]; [3],significantly decreased
same,"Plasma ALT, response per subject","[1]; 200 mg/kg/day oral 14 days, six subjects, FIG. 5C panel H",consistently decreased in all six subjects
same,"Plasma AST, response per subject","[1]; 200 mg/kg/day oral 14 days, six subjects, FIG. 5C panel I",consistently decreased in all six subjects
same,"Plasma ALP, response per subject","[1]; 200 mg/kg/day oral 14 days, six subjects, FIG. 5C panel J",decreased in five of the participating subjects
same,"Plasma TGs, response per subject","[1]; 200 mg/kg/day oral 14 days, six subjects, FIG. 5C panel K, no change in the remaining one subject",decreased in five of the studied subjects
same,Plasma level of serine after supplementation,"[1]; 200 mg/kg/day oral 14 days, six subjects, change in words",significantly increased
same,Markers of liver function after supplementation,"[1]; NAFLD patients, proof-of-concept human study",significantly improved
same,HDL cholesterol,"[1]; after serine, n = 6, 200 mg/kg/day oral 14 days, mean ± SD, baseline 1.00 ± 0.21, P 0.30",1.02 ± 0.18 mmol/L
same,HOMA-IR,"[1]; after serine, n = 6, 200 mg/kg/day oral 14 days, mean ± SD, baseline 2.15 ± 1.85, P 0.18",1.54 ± 1.49
same,LDL cholesterol,"[1]; after serine, n = 6, 200 mg/kg/day oral 14 days, mean ± SD, baseline 3.68 ± 0.80, P 0.50",3.85 ± 0.94 mmol/L
same,Total cholesterol,"[1]; after serine, n = 6, 200 mg/kg/day oral 14 days, mean ± SD, baseline 6.23 ± 1.49, P 0.18",5.85 ± 1.15 mmol/L
same,Fasting plasma glucose,"[1]; after serine, n = 6, 200 mg/kg/day oral 14 days, mean ± SD, baseline 6.57 ± 1.41, P 0.25",6.33 ± 1.41 mmol/L
same,Plasma triglycerides (TG),"[1]; after serine, n = 6, 200 mg/kg/day oral 14 days, mean ± SD, baseline 6.90 ± 6.65, P 0.13",3.63 ± 1.81 mmol/L
same,Bilirubin,"[1]; after serine, n = 6, 200 mg/kg/day oral 14 days, mean ± SD, baseline 7.33 ± 4.11, P 0.13",6.48 ± 3.94 µmol/L
same,Fasting plasma insulin (FPI),"[1]; after serine, n = 6, 200 mg/kg/day oral 14 days, mean ± SD, baseline 46.3 ± 33.8, P 0.23",34.7 ± 25.2 pmol/L
same,γ-Glutamyl transferase (μGT) (U/L),"[1]; after serine, n = 6, 200 mg/kg/day oral 14 days, mean ± SD, baseline 63.8 ± 12.9, P 0.30",62.3 ± 16.3 U/L
same,Liver fat (%),"[1]; after serine, n = 6, L-serine 200 mg/kg oral once per day for 14 days, mean ± SD, baseline 26.8 ± 6.0, P<0.05",20.4 ± 7.0%
same,HS (hepatic steatosis) after serine supplementation (change in words),"[1]; magnetic resonance spectroscopy before and after, 200 mg/kg/day oral 14 days",significantly decreased
same,"HS, response per patient","[1]; magnetic resonance spectroscopy, 200 mg/kg/day oral 14 days, six patients",decreased in all six patients
same,Aspartate aminotransferase (AST) (U/L),"[1]; plasma, after serine, n = 6, 200 mg/kg/day oral 14 days, mean ± SD, baseline 34.5 ± 8.10, P<0.05",27.4 ± 8.4 U/L
same,Alanine aminotransferase (ALT) (U/L),"[1]; plasma, after serine, n = 6, 200 mg/kg/day oral 14 days, mean ± SD, baseline 50.8 ± 15.2, P<0.05",37.6 ± 5.3 U/L
same,Alkaline phosphatase (ALP) (U/L),"[1]; plasma, after serine, n = 6, 200 mg/kg/day oral 14 days, mean ± SD, baseline 76.3 ± 17.2, P<0.05",71.3 ± 17.9 U/L
same,Relative decrease in HS,"[1]; range over the six NAFLD patients, 200 mg/kg/day oral 14 days",1.0-23%
same,Tolerability of the supplementation,"[1]; ~20 g L-serine (200 mg/kg) oral once per day for 14 days, six subjects",well tolerated by all the subjects
same,Doses studied in humans and shown to be safe,"[2]; serine, around 25-30 g/day",up to 400 mg/kg/day
"CC(=O)N[C@@H](CS)C(=O)O [NAC, N-acetyl-L-cysteine, reference compound]",Daily dosage shown to be safe in humans,[2]; NAC,4-6 grams
